Measured values from patent publication US7906520B2, “Methods for treating pain” (The General Hospital Corporation, priority 2003, dated 2011).

Experiments:
[1] = test system: SNI model, nNOS knockout mice; assay: SNI model in nNOS knockout and wild-type mice; assay type: in vivo; details: mechanical or cold stimuli
Protocol: (§1) In this figure, closed circles represent nNOS knockout mice with DAHP; open circles, nNOS knock out mice with vehicle; closed triangles, wild type mice with DAHP; and open triangles, wild type mice with vehicle. […] In this figure, closed triangles represent L-NAME administration; open circles, L-NAME+DAHP administration; closed circles, DAHP administration; and open triangles, vehicle administration. L-NAME was administered at 25 mg/kg, i.p., single dose, and DAHP was administered at 120 mg/kg, i.p., single dose. The antinociceptive efficacy of this high L-NAME dose is weaker (about 50%) than that of a moderate dose of DAHP.

dorsal horn neurons = assay: TUNEL staining of apoptotic profiles in L4/L5 dorsal horn after SNI; assay type: in vivo; details: DAHP 180 mg/kg/day i.p., 7 days after SNI
Protocol: FIG. 25 is a bar graph showing the number of apoptotic cell profiles, using TUNEL staining, observed in the L4/L5 dorsal horn 7 days after SNI surgery of animals treated with either 180 mg/kg/day DAHP or vehicle control. Apoptotic neurons were detected by in situ TUNEL labeling and counted by a blinded observer.

naïve rats = assay: Response to tactile and heat stimuli in naïve rats; assay type: in vivo, rat; details: non-injured animals
Protocol: FIGS. 13A and 13B are a series of graphs showing the effects of DAHP on the response to tactile (13A) and heat stimuli (13B) in naïve rats. A single dose of DAHP (180 mg/kg i.p.) or vehicle was injected at time “zero”.
(§2) Hypersensitivity was induced using the CFA model of paw inflammation. In these experiments, BH4 was injected at time “zero” after measurement of baseline paw withdrawal latency.

[2] = test system: CCI model of neuropathic pain; assay: Chronic constriction injury (CCI) model of neuropathic pain; assay type: in vivo, rat; details: 180 mg/kg/d i.p.
Protocol: FIGS. 9A and 9B are two graphs showing the effect of DAHP on nociceptive behavior in the CCI model of neuropathic pain. […] DAHP treatment (180 mg/kg/d i.p. for 5 days) was started 3 days after surgery and nociceptive behavior was assessed daily before and after drug injection and once every second day after stopping daily drug injections.
All procedures were performed in accordance with Massachusetts General Hospital animal care regulations. Adult male Sprague Dawley rats (200-300 g) were anesthetized with halothane. For the sciatic nerve transection (axotomy), the left sciatic nerve was exposed at the mid thigh level, ligated with 3/0 silk, and sectioned distally. The wound was sutured in two layers, and the animals were allowed to recover. For SNI the tibial and peroneal branch of the sciatic nerve were ligated and transected whereas the sural nerve was spared. For CCI, the sciatic nerve was loosely ligated with dexon 4/0 (three ligatures) and for the spinal ligation model the L5 spinal segmental nerve was ligated.

BH4 biosynthesis = assay: Tissue biopterin and neopterin levels after SNI (LC-MS/MS); assay type: in vivo; details: with DAHP administration
Protocol: FIG. 30 is a series of bar graphs quantifying the levels of the BH4 metabolites biopterin and neopterin in the DH, DRG, and ScN following SNI surgery with and without DAHP treatment, compared to control.
Using the preferred method, tissue neopterin and biopterin levels were determined with a liquid chromatography tandem mass spectrometry method. After acidic pH oxidation with iodine according to Fukushima and Nixon (Methods Enzymol. 66: 429-436, 1980) tissues were extracted by solid phase extraction employing Oasis MCX extraction cartridges and concentrations of total biopterin, neopterin and the internal standard rhamnopterin were determined by liquid chromatography coupled to tandem mass spectrometry. HPLC analysis was done under gradient conditions using a Nucleosil C8 column. MS/MS analyses were performed on an API 4000 Q TRAP triple quadrupole mass spectrometer with a Turbo Ion Spray source. Precursor-to-product ion transitions of m/z 236 192 for biopterin, m/z 252 192 for neopterin, m/z 265 192 for rhamnopterin were used for the MRM. Concentrations of the calibration standards, quality controls and samples were evaluated by Analyst software 1.4 (Applied Biosystems). Linearity of the calibration curve was proven from 0.1-50 ng/ml. The coefficient of correlation for all measured sequences was at least 0.99. The intra-day and inter-day variability was <10%.

[3] = test system: CFA-induced paw inflammation; assay: CFA model of inflammatory pain: Hargreaves test and paw weight; assay type: in vivo, rat
Protocol: FIGS. 11A-11E are a series of graphs showing the effect of DHAP on thermal hyperalgesia in the CFA model which is a model for inflammatory pain. […] On the left end of the graph, two doses of DAHP (180 mg/kg i.p.) were injected, the first 30 minutes before injection of CFA into the hindpaw, the second 4 hours after CFA (indicated with arrows D1 and D2). On the right, a single dose (dotted arrow D1) of DAHP (180 mg/kg i.p.) was injected 24 h after induction of paw inflammation without any treatment during the first 24 h following CFA injection. […] In FIGS. 11C-11D, the effects of systemically administered DAHP (180 mg/kg i.p. single dose; 11C) are compared with the effects of a single intrathecal dose (1 mg/kg i.t.; 11D) which was administered via a lumbar spinal catheter. In both cases, treatment was started 24 hours after CFA injection into the hindpaw. Because of slightly different baseline levels (11C compared with 11D) effects of DAHP after i.p. and i.t. treatment are additionally presented as percentage change of paw withdrawal latency (FIG. 11E) to allow for a direct comparison of both routes of administration.
FIG. 12 is a bar graph showing the increase of the paw weight of the inflamed paw compared with the contralateral paw. Paw weight was determined 48 hours following CFA injection. The increase of the paw weight is a measure for the inflammatory paw edema and therefore allows assessment of paw inflammation.
FIGS. 15A and 15B show the effect of the sepiapterin reductase inhibitor, N-acetyl-serotonin (NAS) on thermal hyperalgesia in the CFA model. The paw withdrawal latency (PWL) to radiant heat (Hargreaves test) is a measure for the heat sensitivity. NAS treatment (single dose of 50 mg/kg i.p.) was started 24 hours after CFA injection into the hindpaw. Data are presented as percentage change of the PWL compared with the PWL of the non-inflamed contralateral paw. […] Paw weight was determined 48 hours following CFA injection. The increase of the paw weight is a measure for the inflammatory paw edema.
as §2

GTPCH-1 expression = assay: GTPCH-I in situ hybridization in DRG after SNI; assay type: in vivo; details: 14 days after SNI surgery, DAHP vs vehicle
Description: FIG. 27A is a series of photomicrographs of in situ hybridization of GTPCH-I in the ipsilateral (lesioned) and contralateral (control) dorsal root ganglia 3 days (top panel) and 14 days (bottom panel) after SNI surgery. FIG. 27B is a series of photomicrographs of GTPCH-I in situ hybridization 14 days after SNI surgery and treatment with either DAHP or vehicle control.

SNI model = assay: SNI model, L-NAME versus DAHP; assay type: in vivo; details: DAHP 120 mg/kg i.p. single dose vs L-NAME 25 mg/kg i.p.
Protocol: as §1

Nc1cc(O)nc(N)n1 [DAHP, 2,4-Diamino-6-hydroxypyrimidine]
anti-nociceptive effects in nNOS knockout vs wild-type mice [1]: do not differ between nNOS knockout mice and wild-type mice
apoptosis of dorsal horn neurons (TUNEL) (dorsal horn neurons): protects dorsal horn neurons from apoptosis
motor activity, von Frey and Hargreaves tests (naïve rats; DAHP 180 mg/kg i.p. single dose): did not result in a difference in motor activity
sedation, general level of activity (naïve rats; DAHP): no obvious signs of sedation
analgesic effects in CCI model [2]: analgesic effects of DAHP were further confirmed
biopterin increases after SNI (BH4 biosynthesis; DH, DRG, ScN): reversed in the DH and the ScN, but not the DRG
neopterin increases after SNI (BH4 biosynthesis; DRG and ScN): reversed
thermal hyperalgesia ([3]; DAHP 1 mg/kg i.t. via lumbar spinal catheter): reduced thermal hyperalgesia
paw withdrawal latency of the non-inflamed contralateral paw ([3]; DAHP 180 mg/kg i.p.): no effect
thermal hyperalgesia ([3]; DAHP 180 mg/kg i.p., 30 min before or 24 h after CFA): reduced thermal hyperalgesia
inflammatory paw edema (paw weight) ([3]; DAHP treated vs control, 48 hours after CFA): no difference in the degree of paw inflammation
GTPCH-1 expression in DRG (GTPCH-1 expression): does not affect GTPCH-1 expression
antinociceptive effect compared with L-NAME (SNI model): stronger antinociceptive effect
